Laboratory results from US20230391781A1, “MALT1 MODULATORS AND USES THEREOF” (Rheos Medicines, Inc., priority 2020, published 2023).
Where a name gives a salt, the structure may show the parent alone.

Legend:
full length MALT1 = full length MALT1 (Homo sapiens (Human), UniProt Q9UDY8); assay: MALT1 Biochemical Assay; details: 15 nM enzyme, 30 μM peptide substrate Ac-Leu-Arg-Ser-Arg-Rh110-dPro, 30 min pre-incubation, 60 min reaction; mean value if tested more than once
Description: Inhibitor potency was evaluated by measuring enzymatic activity of full length MALT1 at varying concentrations of compound. The enzymatic assay consists of a single substrate reaction that monitors the release of a fluorescent dye upon cleavage of the peptide substrate. […] The assay buffer consists of 50 mM Hepes, pH 7.5, 0.8 M sodium citrate, 1 mM DTT, 0.004% tween-20, and 0.005% bovine serum albumin (BSA). […] The reaction was quenched after 60 minutes with the addition of iodoacetate at a final concentration of 10 mM. Total fluorescence was measured using an Envision (PerkinElmer) with fluorescence excitation at 485 nm and emission at […].
For potency determination, 1 μL of serially diluted compound (in 100% DMSO) was pre-incubated with 40 μL of enzyme for 30 minutes. The reaction was initiated with the addition of 10 μL of peptide substrate. The relative fluorescence units were transformed to percent inhibition by using 0% and 100% inhibition controls as reference. […] IC50 values were calculated by fitting the concentration-response curves to a four-parameter logistic equation in GraphPad Prism.

[1] = system: IL-2 in Jurkat (ATCC, clone E6.1) cells stimulated with anti-CD3/28/2; assay: Jurkat IL-2 Assay; assay type: cell-based; details: Homo sapiens; IL-2 inhibition, Jurkat cells, 30 min compound then anti-CD3/28/2 stimulation for 24 hours; mean value if tested more than once; read-out: IC50
Description: Inhibition was determined in a cell-based assay using Jurkat (ATCC, clone E6.1), an immortalized T-cell line, exposed to a dose response of compound and assessed for viability, and Il-2 inhibition by ELISA. Cells were cultured in RPMI/10% FBS (Invitrogen 11875093, Atlanta Biologicals S12450H), maintained below 3E6/mL and only used in assays while below passage 25. Compounds were stamped by ECHO onto 384w plates (PerkinElmer Culturplate, 6007680). The cells were plated in fresh media on top of compound and incubated for 30 minutes before stimulation with soluble anti-CD3/28/2 (Stemcell, 10970) for 24 hours. Supernatant was collected and assessed for Il-2 (MSD, 384w, L21SA-1). To assess viability of cells treated with compound, cells were lysed with CTG reagent (Promega, G7570), and measured by luminometer. […] IC50s calculated using 4-parameter fit in GraphPad Prism.
In this table, “A” indicates IC50 of less than 0.1 μM; “B” indicates IC50 from 0.1 μM up to 1 μM; and “C” indicates IC50 of greater than 1 μM. “N/A” indicates not tested. For a compound that was tested in more than one experiment, the result shown represents the mean value.

full length MALT1, sequence (Q9UDY8 whole entry): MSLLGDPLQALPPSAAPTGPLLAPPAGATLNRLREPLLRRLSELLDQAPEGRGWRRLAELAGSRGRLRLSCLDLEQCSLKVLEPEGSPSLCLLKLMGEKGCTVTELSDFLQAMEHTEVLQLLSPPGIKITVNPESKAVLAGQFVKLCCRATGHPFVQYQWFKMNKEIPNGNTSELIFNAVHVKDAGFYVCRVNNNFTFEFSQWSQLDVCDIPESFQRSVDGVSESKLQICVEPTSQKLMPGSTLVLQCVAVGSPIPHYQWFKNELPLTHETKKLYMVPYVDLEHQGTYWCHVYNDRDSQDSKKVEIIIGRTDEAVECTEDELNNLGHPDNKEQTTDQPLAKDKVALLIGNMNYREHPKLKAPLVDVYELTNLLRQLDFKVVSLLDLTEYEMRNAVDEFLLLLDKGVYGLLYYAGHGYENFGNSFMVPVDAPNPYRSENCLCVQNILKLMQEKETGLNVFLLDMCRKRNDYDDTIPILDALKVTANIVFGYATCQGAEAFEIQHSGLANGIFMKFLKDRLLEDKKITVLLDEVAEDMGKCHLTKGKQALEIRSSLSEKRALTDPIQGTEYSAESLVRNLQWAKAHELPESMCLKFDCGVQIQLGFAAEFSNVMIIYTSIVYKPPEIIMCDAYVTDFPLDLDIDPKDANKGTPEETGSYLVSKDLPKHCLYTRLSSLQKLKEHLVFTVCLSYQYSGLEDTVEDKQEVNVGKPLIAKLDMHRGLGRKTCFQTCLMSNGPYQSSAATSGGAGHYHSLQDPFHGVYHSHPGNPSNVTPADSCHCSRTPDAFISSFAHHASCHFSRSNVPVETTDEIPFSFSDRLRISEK

Compound	IC50 (full length MALT1) [nM]	IC50 [1] [nM]
CO[C@@H](C)c1c(Nc2ccc([C@H](N(C)C(=O)C3CCCN(S(C)(=O)=O)C3)C(F)(F)F)cc2)cnc2nc(Cl)nn12 (stereo partly drawn) [Compound 3.7, N-[(1S)-1-[4-({2-chloro-7-[(1S)-1-methoxyethyl]-[1,2,4]triazolo[1,5-a]pyrimidin-6-yl}amino)phenyl]-2,2,2-trifluoroethyl]-1-methanesulfonyl-N-methylpiperidine-3-carboxamide]	100 to 1000	> 1000
CO[C@@H](C)c1c(Nc2ccc([C@H](N(C)C(=O)C3CCN(C(C)=O)C3)C(F)(F)F)cc2)cnc2nc(Cl)nn12 (stereo partly drawn) [Compound 3.8, 1-acetyl-N-[(1S)-1-[4-({2-chloro-7-[(1S)-1-methoxyethyl]-[1,2,4]triazolo[1,5-a]pyrimidin-6-yl}amino)phenyl]-2,2,2-trifluoroethyl]-N-methylpyrrolidine-3-carboxamide]	100 to 1000	> 1000
CNC(=O)N1CCC(C(=O)N(C)[C@@H](c2ccc(Nc3cnc4nc(Cl)nn4c3[C@H](C)OC)cc2)C(F)(F)F)C1 (stereo partly drawn) [Compound 3.9, N3-[(1S)-1-[4-({2-chloro-7-[(1S)-1-methoxyethyl]-[1,2,4]triazolo[1,5-a]pyrimidin-6-yl}amino)phenyl]-2,2,2-trifluoroethyl]-N1,N3-dimethylpyrrolidine-1,3-dicarboxamide]	< 100	100 to 1000
CO[C@@H](C)c1c(Nc2ccc([C@H](N(C)C(=O)C3CCC(CNC(C)=O)CC3)C(F)(F)F)cc2)cnc2nc(Cl)nn12 (stereo partly drawn) [Compound 3.11, N-[(1S)-1-[4-({2-chloro-7-[(1S)-1-methoxyethyl]-[1,2,4]triazolo[1,5-a]pyrimidin-6-yl}amino)phenyl]-2,2,2-trifluoroethyl]-4-(acetamidomethyl)-N-methylcyclohexane-1-carboxamide]	< 100	100 to 1000
COC(=O)NCC1CCC(C(=O)N(C)[C@@H](c2ccc(Nc3cnc4nc(Cl)nn4c3[C@H](C)OC)cc2)C(F)(F)F)CC1 (stereo partly drawn) [Compound 3.12, methyl N-[(4-{[(1S)-1-[4-({2-chloro-7-[(1S)-1-methoxyethyl]-[1,2,4]triazolo[1,5-a]pyrimidin-6-yl}amino)phenyl]-2,2,2-trifluoroethyl](methyl)carbamoyl}cyclohexyl)methyl]carbamate]	< 100	100 to 1000
CO[C@@H](C)c1c(Nc2ccc([C@H](N(C)C(=O)C3CCCN(C(=O)C4CC4)C3)C(F)(F)F)cc2)cnc2nc(Cl)nn12 (stereo partly drawn) [Compound 4.2, N-[(1S)-1-[4-({2-chloro-7-[(1S)-1-methoxyethyl]-[1,2,4]triazolo[1,5-a]pyrimidin-6-yl}amino)phenyl]-2,2,2-trifluoroethyl]-1-cyclopropanecarbonyl-N-methylpiperidine-3-carboxamide]	100 to 1000	100 to 1000
CO[C@@H](C)c1c(Nc2ccc([C@H](N(C)C(=O)C3CCN(C(=O)C4CC4)C3)C(F)(F)F)cc2)cnc2nc(Cl)nn12 (stereo partly drawn) [Compound 4.3, N-[(1S)-1-[4-({2-chloro-7-[(1S)-1-methoxyethyl]-[1,2,4]triazolo[1,5-a]pyrimidin-6-yl}amino)phenyl]-2,2,2-trifluoroethyl]-1-cyclopropanecarbonyl-N-methylpyrrolidine-3-carboxamide]	< 100	100 to 1000
CO[C@@H](C)c1c(Nc2ccc([C@H](N(C)C(=O)C3CCCN(C)C3)C(F)(F)F)cc2)cnc2nc(Cl)nn12 (stereo partly drawn) [Compound 5.2, N—((S)-1-(4-((2-chloro-7-((S)-1-methoxyethyl)-[1,2,4]triazolo[1,5-a]pyrimidin-6-yl)amino)phenyl)-2,2,2-trifluoroethyl)-N,1-dimethylpiperidine-3-carboxamide]	100 to 1000	> 1000
CO[C@@H](C)c1c(Nc2ccc([C@H](N(C)C(=O)C3CCN(C)C3)C(F)(F)F)cc2)cnc2nc(Cl)nn12 (stereo partly drawn) [Compound 5.3, N-[(1S)-1-[4-({2-chloro-7-[(1S)-1-methoxyethyl]-[1,2,4]triazolo[1,5-a]pyrimidin-6-yl}amino)phenyl]-2,2,2-trifluoroethyl]-N,1-dimethylpyrrolidine-3-carboxamide hydrochloride]	100 to 1000	> 1000
